Source: patent US20240083853A1, “HSD17B13 INHIBITORS AND USES THEREOF” (FL2022-001, Inc., priority 2020, published 2024)
Each block holds one molecule with its values, some of them ahead of it.

Target: T1, Recombinant human HSD17B13 enzyme (Homo sapiens, UniProt Q7Z5P4)
T1 sequence (Q7Z5P4 20-300): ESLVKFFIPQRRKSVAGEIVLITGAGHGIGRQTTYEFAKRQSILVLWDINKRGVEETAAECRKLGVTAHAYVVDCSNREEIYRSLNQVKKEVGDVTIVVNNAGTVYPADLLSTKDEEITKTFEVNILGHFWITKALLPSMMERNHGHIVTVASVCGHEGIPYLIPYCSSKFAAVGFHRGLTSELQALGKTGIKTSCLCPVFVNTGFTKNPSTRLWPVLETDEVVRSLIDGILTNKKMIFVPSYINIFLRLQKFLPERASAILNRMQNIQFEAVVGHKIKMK
Experiment: HSD17b13 NAD(P)H-Glo biochemical assay
Details: for IC50: 50 uM estradiol, 1 mM NAD+, NAD(P)H-Glo luminescence, read-out: HSD17β13 IC50; for inhibition at 10 µM: at 10 uM compound, read-out: HSD17β13 % at 10 uM
Method in brief: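 Luminescent NAD(P)H-Glo read-out, taken after 1 hour at RT, measured cofactor reduction. Substrate and cofactor were estradiol at 50 uM and NAD+ at 1 mM final, reacted with the recombinant human enzyme for 3 hours at 37° C in 20 mM Tris pH7.4, 0.002% Tween-20, 0.02% BSA. Compound was pre-incubated with enzyme for 20 minutes at RT.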

Structure (SMILES): Oc1c(F)cc2cnn(-c3ncc(-c4ccc(Cl)cc4)cn3)c2c1F [Compound 18.4, 1-(5-(4-Chlorophenyl)pyrimidin-2-yl)-5,7-difluoro-1H-indazol-6-ol]
- IC50: < 100 nM

Structure (SMILES): CC(=O)Nc1ccc(-c2ccc(-n3ncc4cc(F)c(O)cc43)cc2)cc1 [Compound 13.32, N-(4′-(5-Fluoro-6-hydroxy-1H-indazol-1-yl)-[1,1′-biphenyl]-4-yl)acetamide]
- inhibition at 100 µM (3 h, at 100 uM compound, read-out: HSD17β13 % at 100 uM): 40%

Structure (SMILES): CS(=O)(=O)N1CCN(c2ccc(-n3nc(F)c4cc(F)c(O)c(F)c43)cc2)CC1 [Compound 6, 3,5,7-Trifluoro-1-(4-(4-(methylsulfonyl)piperazin-1-yl)phenyl)-1H-indazol-6-ol]
- IC50: 100 to 1000 nM

Structure (SMILES): CS(=O)(=O)N1CC(c2ccc(-n3ncc4cc(F)c(O)c(F)c43)cc2)C1 [Compound 30, 5,7-Difluoro-1-(4-(1-(methylsulfonyl)azetidin-3-yl)phenyl)-1H-indazol-6-ol]
- IC50: 100 to 1000 nM

Structure (SMILES): O=C(O)c1cccc(-c2ccc(-n3ncc4cc(F)c(O)cc43)cc2)c1 [Compound 13.29, 4′-(5-Fluoro-6-hydroxy-1H-indazol-1-yl)-[1,1′-biphenyl]-3-carboxylic acid]
- IC50: 1000 to 30000 nM

Structure (SMILES): Oc1c(F)cc2cnn(-c3cnc(-c4ccc(Cl)cc4)cn3)c2c1F [Compound 18, 1-(5-(4-Chlorophenyl)pyrazin-2-yl)-5,7-difluoro-1H-indazol-6-ol]
- IC50: < 100 nM

Structure (SMILES): N#Cc1ccc(-c2ccc(-n3ncc4cc(F)c(O)c(F)c43)cc2)cc1 [Compound 13.39, 4′-(5,7-Difluoro-6-hydroxy-1H-indazol-1-yl)-[1,1′-biphenyl]-4-carbonitrile]
- IC50: < 100 nM

Structure (SMILES): CS(=O)(=O)N1CCN(c2ccc(-n3ncc4c(Cl)c(F)c(O)cc43)cc2)CC1 [Compound 5.1, 4-Chloro-5-fluoro-1-(4-(4-(methylsulfonyl)piperazin-1-yl)phenyl)-1H-indazol-6-ol]
- IC50: 100 to 1000 nM

Structure (SMILES): CS(=O)(=O)c1cccc(-c2ccc(-n3ncc4cc(F)c(O)cc43)cc2)c1 [Compound 13.25, 5-Fluoro-1-(3′-(methylsulfonyl)-[1,1′-biphenyl]-4-yl)-1H-indazol-6-ol]
- IC50: 100 to 1000 nM

Structure (SMILES): Cc1cc(-c2ccc(O)cc2)ccc1-n1ncc2cc(F)c(O)cc21 [Compound 15.1, 5-Fluoro-1-(4′-hydroxy-3-methyl-[1,1′-biphenyl]-4-yl)-1H-indazol-6-ol]
- IC50: 100 to 1000 nM

Structure (SMILES): Oc1cccc(-c2ccc(-n3ncc4cc(Cl)c(O)cc43)cc2)c1 [Compound 2.6, 5-Chloro-1-(3′-hydroxy-[1,1′-biphenyl]-4-yl)-1H-indazol-6-ol]
- IC50: 1000 to 30000 nM

Structure (SMILES): O=C(O)c1ccc(-c2ccc(-n3ncc4cc(F)c(O)cc43)cc2)cc1 [Compound 13.30, 4′-(5-Fluoro-6-hydroxy-1H-indazol-1-yl)-[1,1′-biphenyl]-4-carboxylic acid]
- IC50: 1000 to 30000 nM

Structure (SMILES): CC1(C)CCN(c2ccc(-n3[nH]c(=O)c4cc(F)c(O)c(F)c43)cc2)CC1 [Compound 36, 1-(4-(4,4-Dimethylpiperidin-1-yl)phenyl)-5,7-difluoro-6-hydroxy-1H-indazol-3(2H)-one]
- IC50: 100 to 1000 nM

Structure (SMILES): NC(=O)c1cccc(-c2ccc(-n3ncc4cc(F)c(O)cc43)cc2)c1 [Compound 13.35, 4′-(5-Fluoro-6-hydroxy-1H-indazol-1-yl)-[1,1′-biphenyl]-3-carboxamide]
- IC50: 100 to 1000 nM

Structure (SMILES): Oc1cccc(-c2ccc(-n3ncc4c(F)c(F)c(O)cc43)cc2)c1 [Compound 8, 4,5-Difluoro-1-(3′-hydroxy-[1,1′-biphenyl]-4-yl)-1H-indazol-6-ol]
- IC50: 100 to 1000 nM

Structure (SMILES): CC1(C)CCC(c2ccc(-n3ncc4cc(F)c(O)c(F)c43)cc2)CC1 [Compound 27, 1-(4-(4,4-Dimethylcyclohexyl)phenyl)-5,7-difluoro-1H-indazol-6-ol]
- IC50: < 100 nM

Structure (SMILES): Oc1ccc(-c2ccc(-n3ncc4cc(F)c(O)cc43)nc2)cc1 [Compound 15.3, 5-Fluoro-1-(5-(4-hydroxyphenyl)pyridin-2-yl)-1H-indazol-6-ol]
- IC50: 100 to 1000 nM

Structure (SMILES): CC(=O)Nc1cccc(-c2ccc(-n3ncc4cc(F)c(O)cc43)cc2)c1 [Compound 13.31, N-(4′-(5-Fluoro-6-hydroxy-1H-indazol-1-yl)-[1,1′-biphenyl]-3-yl)acetamide]
- IC50: 1000 to 30000 nM

Further lines, results first:

- IC50: < 100 nM
Structure (SMILES): COC1CCN(c2ccc(-n3ncc4cc(F)c(O)c(F)c43)cc2)CC1 [Compound 22.4, 5,7-Difluoro-1-(4-(4-methoxypiperidin-1-yl)phenyl)-1H-indazol-6-ol]

- inhibition at 10 µM (3 h): 35%
Structure (SMILES): CC1(C)CCN(c2ccc(-n3cnc4cc(F)c(O)cc43)cc2)CC1 [Compound 21.10, 1-(4-(4,4-Dimethylpiperidin-1-yl)phenyl)-5-fluoro-1H-benzo[d]imidazol-6-ol]

- IC50: 100 to 1000 nM
Structure (SMILES): CS(=O)(=O)N1CCC2(CC1)CN(c1ccc(-n3ncc4cc(F)c(O)c(F)c43)cc1)C2 [Compound 20.22, 5,7-Difluoro-1-(4-(7-(methylsulfonyl)-2,7-diazaspiro[3.5]nonan-2-yl)phenyl)-1H-indazol-6-ol]

- IC50: 100 to 1000 nM
Structure (SMILES): CC1(C)CCN(c2cnc(-n3ncc4cc(F)c(O)c(F)c43)nc2)CC1 [Compound 26.8, 1-(5-(4,4-Dimethylpiperidin-1-yl)pyrimidin-2-yl)-5,7-difluoro-1H-indazol-6-ol]

- IC50: 100 to 1000 nM
Structure (SMILES): CC1(C)CCN(c2ccc(-n3c(Cl)nc4cc(F)c(O)c(F)c43)cc2)CC1 [Compound 21.9, 2-Chloro-1-(4-(4,4-dimethylpiperidin-1-yl)phenyl)-5,7-difluoro-1H-benzo[d]imidazol-6-ol]

- IC50: 100 to 1000 nM
Structure (SMILES): CC1(CO)CCN(c2ccc(-n3ncc4cc(F)c(O)c(F)c43)cc2)CC1 [Compound 20.17, 5,7-Difluoro-1-(4-(4-(hydroxymethyl)-4-methylpiperidin-1-yl)phenyl)-1H-indazol-6-ol]

- IC50: < 100 nM
Structure (SMILES): Cc1c(O)c(F)cc2cnn(-c3ccc(N4CCC(C)(C)CC4)cc3)c12 [Compound 25.6, 1-(4-(4,4-Dimethylpiperidin-1-yl)phenyl)-5-fluoro-7-methyl-1H-indazol-6-ol]

- IC50: < 100 nM
Structure (SMILES): CC1(C)CCN(c2ccc(-n3cnc4cc(F)c(O)c(F)c43)cc2)CC1 [Compound 21.5, 1-(4-(4,4-Dimethylpiperidin-1-yl)phenyl)-5,7-difluoro-1H-benzo[d]imidazol-6-ol]

- IC50: 100 to 1000 nM
Structure (SMILES): CS(=O)(=O)N1CCN(c2ccc(-n3cnc4cc(F)c(O)c(F)c43)cc2)CC1 [Compound 21.4, 5,7-Difluoro-1-(4-(4-(methylsulfonyl)piperazin-1-yl)phenyl)-1H-benzo[d]imidazol-6-ol]

- IC50: 1000 to 30000 nM
Structure (SMILES): Oc1c(F)cc2nnn(-c3ccc(N4CC5(CCOCC5)C4)nn3)c2c1F [Compound 26.24, 1-(6-(7-Oxa-2-azaspiro[3.5]nonan-2-yl)pyridazin-3-yl)-5,7-difluoro-1H-benzo[d][1,2,3]triazol-6-ol]

- IC50: 100 to 1000 nM
Structure (SMILES): Oc1c(F)cc2nnn(-c3ncc(N4CC5(CCOCC5)C4)cn3)c2c1F [Compound 26.21, 1-(5-(7-Oxa-2-azaspiro[3.5]nonan-2-yl)pyrimidin-2-yl)-5,7-difluoro-1H-benzo[d][1,2,3]triazol-6-ol]

- IC50: 100 to 1000 nM
Structure (SMILES): Oc1c(F)cc2nnn(-c3ccc(N4CC5(CCOCC5)C4)nc3)c2c1F [Compound 26.12, 1-(6-(7-Oxa-2-azaspiro[3.5]nonan-2-yl)pyridin-3-yl)-5,7-difluoro-1H-benzo[d][1,2,3]triazol-6-ol]

- IC50: 100 to 1000 nM
Structure (SMILES): Oc1c(F)cc2nnn(-c3ccc(N4CCOC[C@H]4c4ccccc4)cc3)c2c1F [Compound 26.28, (R)-5,7-Difluoro-1-(4-(3-phenylmorpholino)phenyl)-1H-benzo[d][1,2,3]triazol-6-ol]

- IC50: < 100 nM
Structure (SMILES): Oc1c(F)cc2cnn(-c3ccc(N4CCC(F)(F)CC4)cc3)c2c1F [Compound 23.20, 1-(4-(4,4-Difluoropiperidin-1-yl)phenyl)-5,7-difluoro-1H-indazol-6-ol]

- IC50: 1000 to 30000 nM
Structure (SMILES): Oc1c(F)cc2nnn(-c3cnc(N4CC5(CCOCC5)C4)nc3)c2c1F [Compound 42.1, 1-(2-(7-Oxa-2-azaspiro[3.5]nonan-2-yl)pyrimidin-5-yl)-5,7-difluoro-1H-benzo[d][1,2,3]triazol-6-ol]

- IC50: < 100 nM
Structure (SMILES): CC1(C)CN(c2ccc(-n3ncc4cc(F)c(O)c(F)c43)cc2)C1 [Compound 23.13, 1-(4-(3,3-Dimethylazetidin-1-yl)phenyl)-5,7-difluoro-1H-indazol-6-ol]

- IC50: < 100 nM
Structure (SMILES): CS(=O)(=O)N1CCN(c2ccc(-n3ncc4cc(F)c(O)c(F)c43)c(F)c2)CC1 [Compound 20.8, 5,7-Difluoro-1-(2-fluoro-4-(4-(methylsulfonyl)piperazin-1-yl)phenyl)-1H-indazol-6-ol]

- inhibition at 10 µM (3 h): < 20%
Structure (SMILES): CC1(C)CCN(c2ccc(-n3ncc4cnc(O)c(F)c43)cc2)CC1 [Compound 25.4, 1-(4-(4,4-Dimethylpiperidin-1-yl)phenyl)-7-fluoro-1H-pyrazolo[4,3-c]pyridin-6-ol]

- IC50: < 100 nM
Structure (SMILES): CC(C)N1CCC(c2ccc(-n3ncc4cc(F)c(O)c(F)c43)cc2)CC1 [Compound 27.8, 5,7-Difluoro-1-(4-(1-isopropylpiperidin-4-yl)phenyl)-1H-indazol-6-ol]

- inhibition at 10 µM (3 h): < 20%
Structure (SMILES): CS(=O)(=O)N1CCN(c2ccc(-n3ncc4cnc(O)c(F)c43)cc2)CC1 [Compound 25.5, 7-Fluoro-1-(4-(4-(methylsulfonyl)piperazin-1-yl)phenyl)-1H-pyrazolo[4,3-c]pyridin-6-ol]

- IC50: 100 to 1000 nM
Structure (SMILES): Oc1cc2c(nnn2-c2ccc(N3CC4(CCOCC4)C3)cc2)c(F)c1F [Compound 40.3, 1-(4-(7-oxa-2-azaspiro[3.5]nonan-2-yl)phenyl)-4,5-difluoro-1H-benzo[d][1,2,3]triazol-6-ol]
